In US11185100B2 (priority 2014, dated 2021):

Legend:
[1] = target: T1, T1R1/T1R3 receptor (Felis catus, UniProt E3UMS2); assay: Activation of T1R1/T1R3 receptor by transmembrane compounds alone or with alanine, IMP, GMP, phenylalanine; HEK293 cells, calcium fluorescence (Example 5); format: cell-based, cat; details: for Max resp % of IMP +Alanine (20 mM): relative to IMP; for Thres +Alanine (20 mM) / Thres +IMP (0.2 mM): threshold concentration; for Max resp % of Ala +IMP (0.2 mM): relative to Ala; for Activity: Table 18, all transmembrane compounds tested, active / N/A (not active)
Description: (§1) Methods: HEK293 cells that stably express T1R3 and inducibly express T1R1 were exposed to transmembrane compounds alone or in combination with one or more amino acids and/or one or more nucleotides to activate the umami receptor. Activation of the T1R1/T1R3 receptor was detected by a change in intracellular calcium levels using a calcium sensitive fluorescent dye. Cells that express T1R3 but not T1R1 were used as a control. A FLIPR® Tetra or a FlexStation® 3 was used for data capture.
(§2) In each experiment, serial dilutions of up to 10 mM of the transmembrane compound were added to the T1R1/T1R3-expressing cells.

[2] = target: T1, T1R1/T1R3 receptor; assay: Activation of T1R1/T1R3 receptor by transmembrane compounds and nucleotide derivatives, conducted as in Examples 1, 2 and 5 (Example 7); format: cell-based, cat
Description: as §1, with “nucleotide derivatives” for “transmembrane compounds”, “alone” for “alone or in combination with one or more amino acids and/or one or more nucleotides”
as §1, with “nucleotide derivatives” for “transmembrane compounds”, “dye and/or a luminescent reporter system.” for “dye.”
as §1, §2

| Structure (SMILES) | +Alanine (20 mM) Max resp % of IMP [1] | +Alanine (20 mM) Max resp ΔF/F [1] | +Alanine (20 mM) Thres [1] [mM] | Max resp % of IMP +Alanine (20 mM) [1] [%] | Thres +Alanine (20 mM) [1] [mM] | +IMP (0.2 mM) Max resp % of Ala [1] | Max resp ΔF/F +IMP (0.2 mM) [1] | Max resp % of Ala +IMP (0.2 mM) [1] [%] | Thres +IMP (0.2 mM) [1] [mM] | Activity [1] | Max resp ΔF/F +Alanine (20 mM) [2] | Thres +Alanine (20 mM) [2] [mM] | Max resp % of Ala +IMP (0.2 mM) [2] | Max resp ΔF/F +IMP (0.2 mM) [2] | Thres +IMP (0.2 mM) [2] [mM] | Max resp % of IMP +Alanine (20 mM) ([2]; hek293 cells) | Activity ([2]; modulation of T1R1/T1R3) |
| --- | --- | --- | --- | --- | --- | --- | --- | --- | --- | --- | --- | --- | --- | --- | --- | --- | --- |
| CC1CCCC(NC(=O)c2ccc3c(c2)OCO3)C1C (stereo not shown) [N-(2,3-dimethylcyclohexyl) benzo[d][1,3]dioxole-5-carboxamide] | 18.1 % of IMP | 0.225 ΔF/F | 3 | 18.1 | 3 | 95.4 % of Ala | 1.175 ΔF/F | 95.4 | 0.275 | active |  |  |  |  |  |  |  |
| O=C(NCCc1ccccc1)c1ccccc1 [N-phenethylbenzamide] |  |  |  |  |  |  |  |  |  |  | 0.1400 ΔF/F | 0.6 | 126.0 % of Ala | 0.9800 ΔF/F | 0.01 | 20.4 % of IMP | active |
| N[C@@H](Cc1ccccc1)C(=O)O [L-Phenylalanine, reference compound] |  |  |  |  |  |  |  |  |  |  |  |  | 75.9 % of Ala | 0.5900 ΔF/F | 0.1 |  |  |
| O=C(NCCc1ccccc1)C(=O)NCc1cccnc1 [N1-phenethyl-N2-(pyridin-3-ylmethyl)oxalamide; N-(2-phenylethyl)-N′-(pyridin-3-ylmethyl)ethanediamide] | 30.2 % of IMP | 0.3750 ΔF/F | 1 |  |  | 61.9 % of Ala |  |  |  |  |  |  |  |  |  |  |  |
| CCC(CC)NC(=O)c1ccc(OC)c(OC)c1 [3,4-dimethoxy-N-(pentan-3-yl)benzamide] | 43.9 % of IMP | 0.545 ΔF/F | 0.3 | 43.9 | 0.3 | 81.0 % of Ala | 0.9975 ΔF/F | 81.0 | 0.5 | active |  |  |  |  |  |  |  |
| O=C(Nc1ccccc1Br)N[C@@H]1c2ccccc2C[C@@H]1O (stereo in doubt) [1-(2-bromophenyl)-3-((1R,2S)-2-hydroxy-2,3-dihydro-1H-inden-1-yl)urea] | 33.0 % of IMP | 0.3 ΔF/F | 3 | 33.0 | 3 | 44.9 % of Ala | 0.378 ΔF/F | 44.9 | 3 | active |  |  |  |  |  |  |  |
| O=C(NCCc1ccccc1)C(=O)NCc1cccnc1 [N1-phenethyl-N2-(pyridin-3-ylmethyl)oxalamide] |  |  |  | 30.2 | 1 |  | 0.7625 ΔF/F | 61.9 | 0.1 | active |  |  |  |  |  |  |  |
| CCCC(C)NC(=O)/C=C/c1ccc(OC)c(OC)c1 (stereo not shown) [(E)-3-(3,4-dimethoxyphenyl)-N-(pentan-2-yl)acrylamide; (2E)-3-(3,4-dimethoxyphenyl)-N-(pentan-2-yl)prop-2-enamide] | 35.2 % of IMP | 0.4375 ΔF/F | 1 |  |  | 86.9 % of Ala |  |  |  |  |  |  |  |  |  |  |  |
| CCC(CC)NC(=O)/C=C/c1ccc(OC)cc1 [(E)-3-(4-methoxyphenyl)-N-(pentan-3-yl)acrylamide] | 64.1 % of IMP | 0.7 ΔF/F | 0.148 | 64.1 | 0.148 | 171.7 % of Ala | 1.443 ΔF/F | 171.7 | 0.0375 | active |  |  |  |  |  |  |  |
